Experimental findings from patent publication EP1171146B1, “PHARMACEUTICAL CO[…] GINKGO BILOBA EXTRACT USEFUL FOR TREATING DEMENTIA” (priority 1999, dated 2000) are described below.

The test system of experiment [1] is cerebral cortex of ischemic rats. Kind of experiment: Energy metabolites in the cerebral cortex in partial ischemia. Particulars: 3-week treatment, mean±S.E. (n=6).
Experiment [2] concerns pyramidal neuronal cells at CA1 (Ammon's horn) area of the hippocampus. Kind of experiment: Histopathological examination of hippocampus after complete ischemia and reperfusion (cresyl-violet staining). The experiment is classed as in vivo, Mongolian gerbil. The method, then:
Gerbils of both control and test groups were anesthetized with injection of pentobarbital sodium at a dose of 50 mg/kg and the carotid arteries on both sides were closed for 5 minutes to induce complete ischemia. After 7 days from initiation of reperfusion, tissues were examined by means of cresyl-violet staining.
Tissue examination under cresyl-violet staining mentioned above was done as follows. Excised cerebellum was cut into slices using sliding microtome and the slices were treated sequentially with xylene and alcohol for five minutes and finally, soaked into distilled water for another 5 minutes. Then, the slice was stained with cresyl-violet which had been prepared in advance.
After staining, the slice was washed one time for 30 minutes with flowing water, followed by dehydrating in alcohol and subsequent two time washings with xylene for 10 minutes. Then, a cover glass was placed on and the specimen was examined under optical microscope.
In the cases of complete ischemia and subsequent reperfusion, biochemical changes will appear initially but some morphological changes may result after a few days. […]

Experiment [3] concerns rats with memory loss induced by scopolamine. Nature of the experiment: Passive avoidance response test (step-through shuttle box). The experiment is classed as in vivo, Sprague-Dawley rats. Particulars: selegiline 2 mg/kg/day and/or Ginkgo biloba extract 48 mg/kg/day p.o. for 3 weeks; scopolamine 6 mg/kg; Figure 1. Here is the method: (§1) To evaluate effects on memory and learning functions, rats of each group were challenged with injection of scopolamine, a drug which cause memory loss and then, subjected to the following tests.
Rats of each group were previously subjected to the adaptation training and subsequent exercises in a shuttle box of step-through type. In the real experiment, scopolamine at a dose of 6 mg/kg was given intraperitoneally and, after 30 minutes, passive avoidance responses were determined. Longer latency in response time indicate improved memory and learning fuctions.
In a step-through passive avoidance test, rats of both normal and test group treated with drugs for 3 weeks were put in a shuttle box and tested for latency time required for avoidance response after being given with scopolamine injection to induce memory loss and the results are shown in Figure 1.

Experiment [4] shares this test system. Kind of experiment: 8-arm radial maze test. Conditions: selegiline 2 mg/kg/day and/or Ginkgo biloba extract 48 mg/kg/day p.o. for 3 weeks; scopolamine 6 mg/kg; compared with control group; Figure 2. It is filed as in vivo, Sprague-Dawley rats. The method, then:
as §1
According to 01 ton and Samuelson methods[J. Exp. Psychol. Anim. Behav. Proc. 2, 97(1976)], 8-arm radial maze test system was used. That is, rats of each group were placed in the center of the eight 65-cm arms of the maze test system, which are radially stretched, and 45 mg each of pellet type feed was placed at the end of each arm. Rats were trained to visit the arm-ends to get the pellet type feeds. In real experiment, rats were pre-treated with intraperitoneal injection of scopolamine at a dose of 6 mg/kg as a challenge and subjected to the test after 30 minutes from injection.
Test was repeated for fifty(50) times. Smaller visit errors indicate gained improvements in memory and learning functions.
In order to induce memory loss, scopolamine was injected to the rats of both normal and test groups which received drug treatment for 3 weeks and then the rats were placed in the center of the 8-arm maze test system to record numbers of visit errors to the respective arms.

Experiment [5] concerns glutathione(GSH) peroxidase. Kind of experiment: Glutathione peroxidase activity after partial ischemia and reperfusion. Particulars: cerebral cortex; 30 min ischemia, 3 hours reperfusion; 3-week treatment; mean±S.E. (n=6).
Experiment [6] deals with cerebral cortex of ischaemic rats. Kind of experiment: Dopamine and its metabolites concentrations in partial ischemia (HPLC-ECD). Conditions: vs control, Figure 3.
Experiment [7] relates to SOD(Superoxide dismutase). Kind of experiment: SOD activity after partial ischemia and reperfusion. It is filed as in vivo, Sprague-Dawley rats. Conditions: cerebral cortex; 30 min ischemia, 3 hours reperfusion; 3-week treatment; mean±S.E. (n=6). Here is the method: The supernatant was used as sample.
Previously, a test tube containing 2.3 mℓ of phosphate buffer with pH 7.8, 300 µℓ of 0.5 mM Na-xanthine, 100 µℓ of 50 µm K-cyanide and 100 µℓ of 2.4 mM Na-deoxycholate was prepared and kept in a water bath of 25 °C. To this test tube, 300 µℓ of 0.1 mM ferricytochrome and sample were added.
Then. the solution was transferred to a cell, 100 µℓ of xanthine oxidase was added, a sealing tape was placed on the cell and, while closing well with fingers, the cell was carefully shaken to mix. Changes in absorbance were measured and recorded for one minute at the wavelength of 550 nm.

A further experiment has as its system MDA(Malondialdehyde). Nature of the experiment: Malondialdehyde measurement after partial ischemia and reperfusion. Conditions: cerebral cortex; 30 min ischemia, 3 hours reperfusion; 3-week treatment; mean±S.E. (n=6).

The structures appear in SMILES notation.

In the case of `C#CCN(C)[C@H](C)Cc1ccccc1` [Selegiline], in experiment [1], the ATP is listed as 1.12±0.04 µmol /g wet wt, the Glucose is on record as 1.21 ±0.02 µmol/g wet wt, the Lactate was 5.42±0.15 µmol/g wet wt and the Pyruvate is 0.10±0.011 µmol/g wet wt. In experiment [2] (5 min complete ischemia, 7 days reperfusion, 3-week treatment, Figures 4e-4j), the “protection of pyramidal cells at CA1 Ammon's horn site of the hippocampus” value is “did not show any effects of significance for protection of the cells”. Further, the “Nerve Cell Density” value in experiment [2] (CA1 site of the hippocampus, mean ± standard error (n=3-4)) is 45±10 /mm. Also, the “avoidance response time (latency)” value in experiment [3] is “significant increase”. In addition, in experiment [4], the visit errors result is “tended to decrease”. Also, the GSH peroxidase in experiment [5] is 2.04±0.22 units/mg protein. Also, the content of dopamine entry in experiment [6] (3-week p.o. selegiline 2 mg/kg/day and/or Ginkgo biloba extract 48 mg/kg/day) is “significant increases”. The “contents of HVA(Homovanillic acid)” value in experiment [6] (3-week p.o. treatment) is “decreased significantly”. This compound also displayed an SOD activity in experiment [7] of 0.42±0.04 units/mg protein. Moreover, the MDA in the experiment with MDA(Malondialdehyde) worked out at 1.80±0.22 nmol/mg protein.
